Test results taken from US12661335B2, “Halogenated xanthene-containing topical anti-gram-positive bacterial ophthalmic composition and method” (Provectus Pharmatech, Inc., priority 2021, dated 2026).
Converted amounts (≈) assume the structure as drawn.

Key:
[1] = tested on: Bacillus subtilis ATCC6051; assay: MIC, broth dilution method, dark condition; assay type: cell-based; details: Table 1 entry 1, 24 h
[2] = tested on: Staphylococcus aureus subsp. Aureus BAA-1683 (a MRSA strain); assay: MIC, broth dilution method, dark condition; assay type: cell-based; details: Table 1 entry 5, 24 h
[3] = tested on: Staphylococcus aureus subsp. Aureus 33592 ™ (a methicillin and gentamicin resistant strain); assay: MIC, broth dilution method, dark condition; assay type: cell-based; details: Table 1 entry 11, 24 h
[4] = tested on: Staphylococcus aureus AIS2006032 (a vancomycin-resistant strain); assay: MIC, broth dilution method, dark condition; assay type: cell-based; details: Table 1 entry 12, 24 h
[5] = tested on: Staphylococcus aureus BR 5 (A methicillin and vancomycin resistant strain); assay: MIC, broth dilution method, dark condition; assay type: cell-based; details: Table 1 entry 13, 24 h
[6] = tested on: Staphylococcus aureus USA100 strains 71080 (VRS8, a vancomycin-resistant strain); assay: MIC, broth dilution method, dark condition; assay type: cell-based; details: Table 1 entry 15, 24 h
[7] = tested on: Enterococcus faecium 349 ™; assay: MIC, broth dilution method, dark condition; assay type: cell-based; details: Table 1 entry 18, 24 h
[8] = tested on: Enterococcus faecium BAA-2320; assay: MIC, broth dilution method, dark condition; assay type: cell-based; details: BAA2320, Table 1 entry 19, 24 h
[9] = tested on: Enterococcus faecium patient #3-1, NR-31912 (a vancomycin-resistant strain); assay: MIC, broth dilution method, dark condition; assay type: cell-based; details: Table 1 entry 21, 24 h
[10] = tested on: Enterococcus faecium UAA714 (a vancomycin-resistant strain); assay: MIC, broth dilution method, dark condition; assay type: cell-based; details: Table 1 entry 22, 24 h
[11] = tested on: Streptococcus salivarius subsp. Salivarius 7073 ™; assay: MIC, broth dilution method, dark condition; assay type: cell-based
[12] = tested on: Streptococcus pneumoniae 6301 ™; assay: MIC, broth dilution method, dark condition; assay type: cell-based
[13] = tested on: Saccharomyces cerevisiae BY4743; assay: MIC, broth dilution method, dark condition; assay type: cell-based; details: Table 1 entry 30, 24 h
Bacillus cereus 13061 ™ = assay: MIC, agar dilution method; assay type: cell-based; details: Table 2 entry 2, dark
Excerpt: (§1) The MIC values of RB determined by the agar dilution method differed from those determined by the broth dilution method (Table 1). Selected examples of the MIC values determined by the agar dilution method are summarized in Table 2 shown by renumbering the assayed microbes.

[14] = tested on: Bacillus subtilis ATCC6051; assay: MIC, agar dilution method; assay type: cell-based; details: Table 2 entry 1, dark
Excerpt: as §1

[15] = tested on: Mycobacterium smegmatis 607 ™; assay: MIC, agar dilution method; assay type: cell-based; details: Mycolicibacterium smegmatis, Table 2 entry 5, dark
Excerpt: as §1

[16] = tested on: Staphylococcus aureus 6538 ™; assay: MIC, agar dilution method; assay type: cell-based; details: Table 2 entry 3, dark
Excerpt: as §1

[17] = tested on: Staphylococcus aureus subsp. Aureus BAA-44 ™ (a MRSA strain); assay: MIC, agar dilution method; assay type: cell-based; details: Table 2 fourth entry (printed 1), dark
Excerpt: as §1

[18] = tested on: 7 methicillin-resistant S. aureus (MRSA) with different SCCmec types; assay: Bactericidal activity under fluorescent or LED light, MRSA panel; assay type: cell-based, Staphylococcus aureus; details: under the fluorescent or LED light; Table 1 entries 5-11
Method: Minimum inhibitory concentrations (MICs) were determined by broth dilution microplate alamar blue assay or by OD measurement. All compounds were stored in DMSO or saline (1 mg/100 μL concentration). This concentration was used as the stock solution for all MIC studies. Each compound from stock solution was placed in the first well of a sterile 96 well plate and a serial dilution was conducted with the culturing broth (total volume of 10 μL). The bacterial suspension at log phase (190 μL) was added to each well (total volume of 200 μL), and was incubated for 24 h at 37° C. 20 μL of resazurin (0.02%) was added to each well and incubated for 4 h, (National Committee for Clinical Laboratory Standards (NCCLS) method (pink=growth, blue=no visible growth)). The OD measurements were performed for all experiments prior to performing colorimetric assays. The absorbance of each well was also measured at 570 and 600 nm via UV-Vis.

Gram-positive bacteria = assay: MIC summary for Gram-positive bacteria, broth dilution; assay type: cell-based
Excerpt: Under the dark condition RB is known to display antibacterial activity at high concentrations.
Provectus has established a manufacturing and purification process for pharmaceutical-grade RB that fulfills both cGMP and ICH requirements. We have evaluated the antibacterial activity and cytotoxicity of a pharmaceutical-grade RB formulated product (PV-10®) as an exemplary RB compound in illuminating and dark conditions.

[19] = tested on: biofilms of drug-resistant S. aureus 71080 (VRS8); assay: Biofilm eradication assay; assay type: cell-based, Staphylococcus aureus; details: fluorescent and dark conditions; concentration-dependent
Excerpt: Linezolid is not an effective drug in eradicating biofilms of Gram-positive bacteria, but has a beneficial effect in prevention of biofilm formations [Reiter et al., J. Med. Microbiol. 62:394-399 (2013)], and was used as a control.
We confirm that RB is an excellent agent to eradicate biofilms of Gram-positive bacteria, including drug-resistant strains. […] These studies indicate that RB has the potential antibacterial agent to kill drug-resistant bacteria in any growth phases.

[20] = tested on: multidrug-resistant Fusarium keratoplasticum; details: RB about 0.1%, photoactivated by 15 minutes irradiation at 375 nm or 518 nm; cited from earlier work

Which MIC [1] does the source give for O=C(O)c1c(Cl)c(Cl)c(Cl)c(Cl)c1-c1c2cc(I)c(=O)c(I)c-2oc2c(I)c(O)c(I)cc12 [RB, 4,5,6,7-tetrachloro-2′,4′,5′,7′-tetraiodofluorescein] here?
Its MIC is 50 µg/mL (≈ 51.4 µM).

And the MIC [2]?
Its MIC is 50 µg/mL (≈ 51.4 µM).

What about the MIC [3] of the same compound?
Its MIC is 50 µg/mL (≈ 51.4 µM).

What about the MIC [4] of the same compound?
The MIC was 50 µg/mL (≈ 51.4 µM).

What about the MIC [5] of the same compound?
The MIC was 25 µg/mL (≈ 25.7 µM).

What about the MIC [6] of the same compound?
The MIC was 25 µg/mL (≈ 25.7 µM).

And the MIC [7]?
Its MIC is 50 µg/mL (≈ 51.4 µM).

What about the MIC [8] of the same compound?
The MIC was 25 µg/mL (≈ 25.7 µM).

And the MIC [9]?
Its MIC is 50 µg/mL (≈ 51.4 µM).

And the MIC [10]?
Its MIC is 50 µg/mL (≈ 51.4 µM).

And the MIC ([11]; Streptococcus salivarius, Table 1 entry 23, broth dilution, dark, 24 h)?
The MIC was 25 µg/mL (≈ 25.7 µM).

What about the “susceptibility to RB” value ([11]; entry 23) of the same compound?
The value was “susceptible”.

And the MIC ([12]; Streptococcus pneumoniae, Table 1 entry 24, broth dilution, dark, 24 h)?
Its MIC is > 100 µg/mL.

And the “susceptibility to RB” value ([12]; entry 24)?
The value was “showed resistance”.

And the MIC [13]?
Its MIC is 125 µg/mL (≈ 128 µM).

And the MIC (Bacillus cereus 13061 ™)?
The MIC was 125 µg/mL (≈ 128 µM).

What about the MIC [14] of the same compound?
The MIC was 125 µg/mL (≈ 128 µM).

And the MIC [15]?
The MIC was 50 µg/mL (≈ 51.4 µM).

What about the MIC [16] of the same compound?
The MIC was 25 µg/mL (≈ 25.7 µM).

What about the MIC [17] of the same compound?
The MIC was 50 µg/mL (≈ 51.4 µM).

What about the “concentration at which all MRSA strains were killed” value [18] of the same compound?
The value was 0.78 to 3.1 µg/mL.

And the “concentration showing antibacterial activity against all Gram-positive bacteria of entries 1-23” value (Gram-positive bacteria; dark condition, Table 1)?
Its value is 25.0 to 100 µg/mL.

What about the MIC (Gram-positive bacteria; saline-diluted PV-10, except Streptococcus pneumoniae sp., lighting not given, read-out: MIC against most Gram-positive bacteria) of the same compound?
Its MIC is 0.39 to 3.1 µg/mL (≈ 0.401 to 3.18 µM).

And the “viable cells in biofilm” value [19]?
Its value is “significantly reduced”.

And the “fungal growth inhibition in vitro” value [20]?
Its value is “could inhibit the fungal growth”.
